The values below come from article PMC11370357 (bioRxiv, 2024).

The structures appear in SMILES notation.

For the test, the target named is T1, GPRC6A (Homo sapiens, UniProt Q5T6X5).
T1 sequence (Q5T6X5 19-926): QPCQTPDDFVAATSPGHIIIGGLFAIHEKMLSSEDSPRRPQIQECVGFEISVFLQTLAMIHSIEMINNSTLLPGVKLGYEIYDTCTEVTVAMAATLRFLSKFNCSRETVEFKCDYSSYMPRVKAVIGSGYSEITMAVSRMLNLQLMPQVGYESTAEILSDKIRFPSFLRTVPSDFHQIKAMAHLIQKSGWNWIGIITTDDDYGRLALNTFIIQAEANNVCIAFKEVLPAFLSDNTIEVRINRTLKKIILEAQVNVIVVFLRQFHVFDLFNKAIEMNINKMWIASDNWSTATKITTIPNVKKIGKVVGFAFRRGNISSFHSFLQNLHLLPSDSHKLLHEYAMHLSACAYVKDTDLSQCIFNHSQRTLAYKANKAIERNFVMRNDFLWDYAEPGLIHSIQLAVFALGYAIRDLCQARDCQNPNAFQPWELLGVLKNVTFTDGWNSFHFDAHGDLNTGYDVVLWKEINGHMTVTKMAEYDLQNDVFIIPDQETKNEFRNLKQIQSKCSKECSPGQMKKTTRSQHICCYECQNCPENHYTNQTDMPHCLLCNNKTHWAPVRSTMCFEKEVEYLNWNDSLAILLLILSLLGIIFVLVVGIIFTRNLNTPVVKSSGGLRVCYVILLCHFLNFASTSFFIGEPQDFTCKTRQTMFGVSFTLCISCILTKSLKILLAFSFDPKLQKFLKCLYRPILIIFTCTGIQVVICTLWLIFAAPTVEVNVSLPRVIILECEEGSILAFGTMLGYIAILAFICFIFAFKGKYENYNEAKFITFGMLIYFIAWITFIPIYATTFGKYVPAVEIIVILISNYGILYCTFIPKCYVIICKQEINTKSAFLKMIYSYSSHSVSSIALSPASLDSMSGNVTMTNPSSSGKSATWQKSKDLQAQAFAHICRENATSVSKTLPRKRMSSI
Type of test: cell-based.

Regarding `CN(C)C(=N)N=C(N)N` [metformin, 1,1-dimethylbiguanide], the midpoint of the response, the EC50, lay at 284 µM.
